The values that follow come from patent publication US5451516A, “Bifunctional protein from carrots (Daucus carota) with aspartokinase and homoserine dehydrogenase activities” (priority 1991, dated 1995).

In series [1] the target is T1, carrot (Daucus carota L. cv Danvers) aspartokinase form II (AKII, Peak II; threonine-sensitive) of the bifunctional AK-HSDH protein (Daucus carota, UniProt P37142).
T1 construct: AK was purified by a series of column chromatography steps; endogenous in cells; host or cells: carrot (Daucus carota L. cv Danvers) cell suspension culture, protein partly purified by gel filtration and DEAE chromatography
T1 sequence (P37142 88-921): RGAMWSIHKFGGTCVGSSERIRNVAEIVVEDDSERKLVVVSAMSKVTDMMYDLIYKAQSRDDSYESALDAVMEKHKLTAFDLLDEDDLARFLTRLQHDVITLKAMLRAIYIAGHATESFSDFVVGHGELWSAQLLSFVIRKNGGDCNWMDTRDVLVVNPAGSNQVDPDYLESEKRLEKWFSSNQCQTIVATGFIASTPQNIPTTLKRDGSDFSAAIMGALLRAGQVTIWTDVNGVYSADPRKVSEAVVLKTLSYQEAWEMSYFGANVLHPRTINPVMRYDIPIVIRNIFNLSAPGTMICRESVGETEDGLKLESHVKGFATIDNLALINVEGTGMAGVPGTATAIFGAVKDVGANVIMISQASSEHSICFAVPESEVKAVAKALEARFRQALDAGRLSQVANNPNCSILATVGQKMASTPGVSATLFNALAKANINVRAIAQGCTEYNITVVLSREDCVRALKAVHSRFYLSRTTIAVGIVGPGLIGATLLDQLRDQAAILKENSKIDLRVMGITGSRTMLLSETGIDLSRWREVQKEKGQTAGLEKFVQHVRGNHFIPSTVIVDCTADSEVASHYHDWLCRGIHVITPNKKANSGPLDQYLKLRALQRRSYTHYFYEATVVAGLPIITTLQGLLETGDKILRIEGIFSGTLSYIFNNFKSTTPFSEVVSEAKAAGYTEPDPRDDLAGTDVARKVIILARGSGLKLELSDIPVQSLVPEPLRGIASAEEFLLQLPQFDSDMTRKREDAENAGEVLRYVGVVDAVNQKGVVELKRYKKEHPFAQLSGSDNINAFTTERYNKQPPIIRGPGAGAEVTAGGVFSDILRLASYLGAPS
Kind of series: Aspartokinase activity, hydroxamate method (second eluting DEAE peak, AKII). The format is biochemical. The procedure:
(§1) The first eluting peak (28-32 min), AKI, was inhibited by lysine and was relatively insensitive to threonine (See Table II). The second peak (44-48 min), AKII, was inhibited by threonine and was relatively insensitive to lysine. These two peaks were kinetically different as well as having different feedback inhibition patterns. The Km(asp) for AKI was approximately 1 mM and for AKII was approximately 9 mM. Experimental conditions could affect which AK activities were observed. AK activity inhibited by lysine was not observed unless lysine was added to the homogenization buffer. If the pH of the sample was lowered to pH 6 before anion exchange, sensitivity to lysine was lost, although the total amount of AK activity remained unchanged. […] Furthermore, the lysine-sensitive activity could not be eluted from the cation-exchange medium with KC1.
AK was purified by a series of column chromatography steps. The cells were harvested after 5 days and disrupted in a nitrogen bomb as described for HSDH (B. Matthews (1989), supra) except that the threonine concentration was reduced to 1 mM and 1 mM lysine was added to the extraction buffer. The crude extract was concentrated by 60% ammonium sulfate before the first gel filtration through Biogel A-0.5 m (4.5 cm×47 cm) equilibrated with 50 mM Tris-HCl pH 7.5, 10 mM 2-mercaptoethanol, 1 mM EDTA, 1 mM lysine, 1 mM threonine and 20% glycerol. Fractions containing AK activity were combined, concentrated by the addition of an equal volume of saturated ammonium sulfate for a second gel filtration through Sephadex G-150 (2.5 cm×39 cm) and equilibrated with the same buffer plus 0.2 M KC1. Fractions with AK activity were combined, concentrated by the addition of an equal volume of saturated ammonium sulfate and dialyzed against 16 mM Tris-HCl pH 7.5, 10 mM 2-mercaptoethanol, 1 mM lysine, 1 mM threonine and 20% glycerol. The dialyzed sample was loaded onto an Altex Spherogel TSK DEAE-5PW column (21.5 mm×15 cm). AK activity was eluted over 65 min with a gradient from 0-0.5 M KCl in 20 mM Mes pH 6, 5 mM 2-mercaptoethanol, 1 mM lysine, 1 mM threonine, and 20% glycerol. Fractions containing activity were combined, diluted four-fold and applied to an Altex Spherogel TSK DEAE-5PW column (7.5 mm×7.5 cm) equilibrated with 50 mM Tris-HCl pH 7.5 containing 5 mM 2-mercaptoethanol,1 mM lysine, 1 mM threonine and 20% glycerol fractions containing AK activity were combined and diluted four-fold and reapplied to the column equilibrated with the same buffer containing 20 mM aspartate. Fractions with AK activity were concentrated by filtration through Centricon-303 filters (Amicon) and stored at -20° C.
Aspartokinase activity was assayed by the hydroxamate method as described in P. Bryan et al., Biochem Biophys Res Comm 41: 1211-1217 (1970). […]

In series [2] the test system is carrot (Daucus carota L. cv Danvers) aspartokinase form I (AKI, Peak I; lysine-sensitive) of the bifunctional AK-HSDH protein. Kind of series: Aspartokinase activity, hydroxamate method (first eluting DEAE peak, AKI). The format is biochemical. Particulars: for % Control AK activity +thr (10 mM): 10 mM threonine; for % Control AK activity +lys (10 mM): 10 mM lysine.

Substrate in series [3]: N[C@@H](CC(=O)O)C(=O)O
Kind of series: Aspartokinase activity, hydroxamate method (second eluting DEAE peak, AKII). In kind it is biochemical, Daucus carota. The settings on record: other: AKII, second peak (44-48 min) from DEAE pH 6, 37.0 °C. The procedure:
as §1
AK was purified by a series of column chromatography steps. The cells were harvested after 5 days and disrupted in a nitrogen bomb as described for HSDH (B. Matthews (1989), supra) except that the threonine concentration was reduced to 1 mM and 1 mM lysine was added to the extraction buffer. The crude extract was concentrated by 60% ammonium sulfate before the first gel filtration through Biogel A-0.5 m (4.5 cm×47 cm) equilibrated with 50 mM Tris-HCl pH 7.5, 10 mM 2-mercaptoethanol, 1 mM EDTA, 1 mM lysine, 1 mM threonine and 20% glycerol. […]

Read-outs that look alike come from different tables or passages of the source.

Consider `C[C@@H](O)[C@H](N)C(=O)O` [thr, threonine], for which the remaining activity at 10000 µM is 32% in series [1] (prep ak33II, 10 mM threonine, read-out: % Control AK activity +thr (10 mM)) and 33% in series [1] (prep ak45II, 10 mM threonine, read-out: % Control AK activity +thr (10 mM)). For the same molecule, the “% Control AK activity +thr (10 mM)” value in series [2] (prep ak32I) is on record as 68 % Control; in series [2] (prep ak33I), 71 % Control.
Consider `NCCCC[C@H](N)C(=O)O` [lys, lysine], for which the remaining activity at 10000 µM is 75% in series [1] (read-out: % Control AK activity +lys (10 mM), prep ak33II, 10 mM lysine) and 91% in series [1] (read-out: % Control AK activity +lys (10 mM), prep ak45II, 10 mM lysine). The figures for the “% Control AK activity +lys (10 mM)” value in series [2] (prep ak32I) and in series [2] (prep ak33I) were 21 % Control and 39 % Control, respectively.

B1: carrot (Daucus carota L. cv Danvers) aspartokinase form II (AKII, Peak II; threonine-sensitive) of the bifunctional AK-HSDH protein (Daucus carota) (protein)
chain: RGAMWSIHKFGGTCVGSSERIRNVAEIVVEDDSERKLVVVSAMSKVTDMMYDLIYKAQSRDDSYESALDAVMEKHKLTAFDLLDEDDLARFLTRLQHDVITLKAMLRAIYIAGHATESFSDFVVGHGELWSAQLLSFVIRKNGGDCNWMDTRDVLVVNPAGSNQVDPDYLESEKRLEKWFSSNQCQTIVATGFIASTPQNIPTTLKRDGSDFSAAIMGALLRAGQVTIWTDVNGVYSADPRKVSEAVVLKTLSYQEAWEMSYFGANVLHPRTINPVMRYDIPIVIRNIFNLSAPGTMICRESVGETEDGLKLESHVKGFATIDNLALINVEGTGMAGVPGTATAIFGAVKDVGANVIMISQASSEHSICFAVPESEVKAVAKALEARFRQALDAGRLSQVANNPNCSILATVGQKMASTPGVSATLFNALAKANINVRAIAQGCTEYNITVVLSREDCVRALKAVHSRFYLSRTTIAVGIVGPGLIGATLLDQLRDQAAILKENSKIDLRVMGITGSRTMLLSETGIDLSRWREVQKEKGQTAGLEKFVQHVRGNHFIPSTVIVDCTADSEVASHYHDWLCRGIHVITPNKKANSGPLDQYLKLRALQRRSYTHYFYEATVVAGLPIITTLQGLLETGDKILRIEGIFSGTLSYIFNNFKSTTPFSEVVSEAKAAGYTEPDPRDDLAGTDVARKVIILARGSGLKLELSDIPVQSLVPEPLRGIASAEEFLLQLPQFDSDMTRKREDAENAGEVLRYVGVVDAVNQKGVVELKRYKKEHPFAQLSGSDNINAFTTERYNKQPPIIRGPGAGAEVTAGGVFSDILRLASYLGAPS
notes: AK was purified by a series of column chromatography steps; The cells were harvested after 5 days; endogenous in cells; host or cells: carrot (Daucus carota L. cv Danvers) cell suspension culture, protein partly purified by gel filtration and DEAE chromatography
One may read the Km as the concentration of substrate that gives half-maximal velocity. In the case of B1, the Km in series [3] worked out at 9 mM.
